Results taken from patent EP0275742A1, “5-Hydroxymethyl derivatives of 2-oxazolidinones, their preparation and their therapeutical use” (SYNTHELABO, priority 1986, dated 1988).

How the values were obtained:
MAO-B = biological target: T1, MAO-B (Rattus norvegicus, UniProt P19643); assay: MAO-B inhibition in vitro, rat brain homogenate (protocol of DOSTERT P. et coll.); format: biochemical; conditions: for Ki: 20 min preincubation, [14C] phényléthylamine 12 µM, KM = 6 µM, whole brain homogenate of male Sprague-Dawley rat, 1 g tissue/16 ml phosphate buffer pH 7,4, Ki calculated from CI 50; for Ki (A) / Ki (B): selectivity ratio MAO-A over MAO-B, rat brain homogenate
T1 construct: un homogénat de cerveau total de rat mâle Sprague-Dawley; from tissue; host or cells: whole brain homogenate of male Sprague-Dawley rat
T1 sequence (P19643 1-520): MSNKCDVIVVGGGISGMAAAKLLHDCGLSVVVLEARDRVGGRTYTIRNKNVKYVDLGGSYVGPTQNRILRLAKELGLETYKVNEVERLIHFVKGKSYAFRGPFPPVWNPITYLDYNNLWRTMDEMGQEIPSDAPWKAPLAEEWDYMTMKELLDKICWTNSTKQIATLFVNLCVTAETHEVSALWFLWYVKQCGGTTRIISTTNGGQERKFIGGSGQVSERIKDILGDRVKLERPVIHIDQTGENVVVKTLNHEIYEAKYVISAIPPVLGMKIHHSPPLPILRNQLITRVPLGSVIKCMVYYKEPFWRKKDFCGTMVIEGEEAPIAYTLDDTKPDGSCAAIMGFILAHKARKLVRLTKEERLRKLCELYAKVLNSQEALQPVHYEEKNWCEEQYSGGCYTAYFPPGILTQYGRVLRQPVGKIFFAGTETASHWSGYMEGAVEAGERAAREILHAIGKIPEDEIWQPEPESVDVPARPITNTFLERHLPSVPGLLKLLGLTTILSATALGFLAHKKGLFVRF
Description: (§1) Cette activité-a été mise en évidence par mise en oeuvre du protocole décrit par DOSTERT P. et coll. dans J. Pharm. Pharmacol., 1983, 35, 161-165; ce protocole est basé sur des tests enzymatiques menés avec ou sans préincubation notamment à 37° C pendant 20 minutes et il permet de mesurer in vitro l'effet inhibiteur à l'égard de la MAO-A et de la MAO-B du cerveau de rat.
(§2) Le tableau IV ci-après rassemble les constantes d'inhibition Ki(A) et Ki(B) respectivement des formes A et B de la MAO, obtenues pour un certain nombre de composés selon l'invention en suivant le protocole ci-dessus appliqué à un homogénat de cerveau total de rat mâle Sprague-Dawley, à 1 g de tissu/16 ml de tampon phosphate de pH 7,4.

MAO-A = biological target: T2, MAO-A (Rattus norvegicus, UniProt P21396); assay: MAO-A inhibition in vitro, rat brain homogenate (protocol of DOSTERT P. et coll.); format: biochemical; conditions: 20 min preincubation; [14C] sérotonine 480 µM, KM = 100 µM; whole brain homogenate of male Sprague-Dawley rat, 1 g tissue/16 ml phosphate buffer pH 7,4; Ki calculated from CI 50
T2 construct: un homogénat de cerveau total de rat mâle Sprague-Dawley; from tissue; host or cells: whole brain homogenate of male Sprague-Dawley rat
T2 sequence (P21396 1-526): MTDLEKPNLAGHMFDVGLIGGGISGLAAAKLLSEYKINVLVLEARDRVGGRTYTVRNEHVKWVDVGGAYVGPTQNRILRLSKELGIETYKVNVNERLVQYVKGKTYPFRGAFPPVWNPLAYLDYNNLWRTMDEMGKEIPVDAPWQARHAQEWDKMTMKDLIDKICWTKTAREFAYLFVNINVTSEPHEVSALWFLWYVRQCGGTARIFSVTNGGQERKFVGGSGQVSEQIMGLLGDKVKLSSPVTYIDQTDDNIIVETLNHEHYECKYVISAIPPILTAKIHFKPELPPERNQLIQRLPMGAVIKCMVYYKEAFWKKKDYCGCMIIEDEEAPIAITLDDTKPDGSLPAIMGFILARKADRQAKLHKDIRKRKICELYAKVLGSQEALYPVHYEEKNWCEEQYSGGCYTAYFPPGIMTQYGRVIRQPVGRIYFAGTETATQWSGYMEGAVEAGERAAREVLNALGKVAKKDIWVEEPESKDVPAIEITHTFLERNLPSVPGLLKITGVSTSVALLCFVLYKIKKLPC
Description: as §1, §2

Row | Molecule | Ki (MAO-B) [µM] | Ki (A) / Ki (B) (MAO-B) | Ki (MAO-A) [µM]
1 | CC(C)CCOc1ccc(N2C[C@H]([C@@H](C)O)OC2=O)cc1 [compound 200497] | 0.168 | 36 | 6
2 | [(chloro-3 benzyloxy)-4-phenyl]-3 (hydroxy-1 éthyl)-5 oxazolidinone-2 [compound 340176] | 0.1 | 5 | 0.476
3 | C[C@@H](O)[C@H]1CN(c2ccc(OCC3CCCCC3)cc2)C(=O)O1 [compound 200443] | 0.04 | 259 | 10.3
4 | C[C@@H](O)[C@H]1CN(c2ccc(OCc3cccc(Cl)c3)cc2)C(=O)O1 [compound 300873, [(chloro-3 benzyloxy)-4 phényl)-3 (hydroxy-1 éthyl)-5 oxazolidinone-2] | 0.027 | >640 | > 17.2
5 | [(chloro-3 benzyloxy)-4 phényl]-3 (hydroxy-1 éthyl)-5 oxazolidinone-2 [compound 340177] | 0.343 | 7 | 2.26
6 | C[C@H](O)[C@@H]1CN(c2ccc(OCc3cccc(Cl)c3)cc2)C(=O)O1 [compound 300872, [(chloro-3 benzyloxy)-4 phényl]-3 (hydroxy-1 étant)-5 oxazolidinone-2] | 1.6 | > 0,6 | > 1
7 | C[C@@H](O)[C@H]1CN(c2ccc(OCc3ccc(F)c(Cl)c3)cc2)C(=O)O1 [compound 200498] | 0.014 | 634 | 9
